Results from patent US10633366B2, “Antibacterial compounds” (AZIENDE CHIMICHE RIUNITE ANGELINI FRANCESCO A.C.R.A.F. …, priority 2016, dated 2020).
Where two headings read alike, the source gives them in different places.

Columns and labels:
Experiment in all cases: biochemical
[1] = biological target: S. aureus Topoisomerase IV (Staphylococcus aureus, UniProt P0C1S7+P0C1U9); settings: for inhibition at 50 µM: read-out: % inhibition Topo IV
[2] = biological target: S. aureus DNA gyrase (Staphylococcus aureus, UniProt P0A0K8+P20831); settings: for IC50: IC50 DNA gyrase; for inhibition at 50 µM: read-out: % inhibition DNA gyrase
Sequence of S. aureus DNA gyrase (P0A0K8 whole entry): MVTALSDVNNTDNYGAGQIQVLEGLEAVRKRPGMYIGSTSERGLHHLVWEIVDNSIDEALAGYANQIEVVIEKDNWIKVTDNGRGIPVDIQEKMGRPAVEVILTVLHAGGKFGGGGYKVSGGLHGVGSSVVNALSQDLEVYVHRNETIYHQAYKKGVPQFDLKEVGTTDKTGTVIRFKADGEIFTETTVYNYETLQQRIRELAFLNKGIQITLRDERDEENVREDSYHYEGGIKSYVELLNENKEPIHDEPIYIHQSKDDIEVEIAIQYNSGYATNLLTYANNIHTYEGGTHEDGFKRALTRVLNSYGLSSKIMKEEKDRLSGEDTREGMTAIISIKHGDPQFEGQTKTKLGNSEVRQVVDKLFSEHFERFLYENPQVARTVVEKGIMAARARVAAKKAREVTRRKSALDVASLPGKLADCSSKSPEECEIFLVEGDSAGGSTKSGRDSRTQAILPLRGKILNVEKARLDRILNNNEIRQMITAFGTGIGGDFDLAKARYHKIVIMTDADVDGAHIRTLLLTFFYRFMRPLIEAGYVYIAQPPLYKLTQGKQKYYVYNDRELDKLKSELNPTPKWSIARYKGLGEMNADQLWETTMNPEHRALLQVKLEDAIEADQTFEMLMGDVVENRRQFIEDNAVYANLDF
Sequence of S. aureus DNA gyrase (P20831 whole entry): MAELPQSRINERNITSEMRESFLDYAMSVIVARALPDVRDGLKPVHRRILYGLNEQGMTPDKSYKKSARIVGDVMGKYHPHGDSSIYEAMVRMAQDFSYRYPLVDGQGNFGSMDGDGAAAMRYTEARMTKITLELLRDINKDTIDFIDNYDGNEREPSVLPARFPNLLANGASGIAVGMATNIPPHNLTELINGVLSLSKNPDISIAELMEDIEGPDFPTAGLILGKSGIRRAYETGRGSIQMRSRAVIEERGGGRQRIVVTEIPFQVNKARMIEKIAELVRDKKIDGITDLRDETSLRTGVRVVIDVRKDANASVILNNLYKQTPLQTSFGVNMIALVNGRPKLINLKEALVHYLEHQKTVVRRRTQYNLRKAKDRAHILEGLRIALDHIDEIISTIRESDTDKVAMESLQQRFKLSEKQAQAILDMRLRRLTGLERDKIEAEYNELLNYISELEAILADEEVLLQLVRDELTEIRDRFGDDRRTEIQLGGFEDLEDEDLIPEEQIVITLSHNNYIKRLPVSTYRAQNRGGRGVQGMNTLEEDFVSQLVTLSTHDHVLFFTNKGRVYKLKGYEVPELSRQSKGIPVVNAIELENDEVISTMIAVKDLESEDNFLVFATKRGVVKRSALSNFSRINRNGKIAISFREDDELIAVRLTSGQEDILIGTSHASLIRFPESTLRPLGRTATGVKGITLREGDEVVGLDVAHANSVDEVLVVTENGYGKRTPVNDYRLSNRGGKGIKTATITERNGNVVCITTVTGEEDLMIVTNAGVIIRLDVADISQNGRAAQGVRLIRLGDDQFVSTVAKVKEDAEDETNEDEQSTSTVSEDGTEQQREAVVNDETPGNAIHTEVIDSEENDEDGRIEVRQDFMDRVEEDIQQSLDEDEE

[3] = biological target: E. coli DNA gyrase (Escherichia coli, UniProt P0AES4+P0AES6); settings: for IC50: IC50 DNA gyrase; for inhibition at 50 µM: read-out: % inhibition DNA gyrase
Sequence of E. coli DNA gyrase (P0AES4 whole entry, one chain of several): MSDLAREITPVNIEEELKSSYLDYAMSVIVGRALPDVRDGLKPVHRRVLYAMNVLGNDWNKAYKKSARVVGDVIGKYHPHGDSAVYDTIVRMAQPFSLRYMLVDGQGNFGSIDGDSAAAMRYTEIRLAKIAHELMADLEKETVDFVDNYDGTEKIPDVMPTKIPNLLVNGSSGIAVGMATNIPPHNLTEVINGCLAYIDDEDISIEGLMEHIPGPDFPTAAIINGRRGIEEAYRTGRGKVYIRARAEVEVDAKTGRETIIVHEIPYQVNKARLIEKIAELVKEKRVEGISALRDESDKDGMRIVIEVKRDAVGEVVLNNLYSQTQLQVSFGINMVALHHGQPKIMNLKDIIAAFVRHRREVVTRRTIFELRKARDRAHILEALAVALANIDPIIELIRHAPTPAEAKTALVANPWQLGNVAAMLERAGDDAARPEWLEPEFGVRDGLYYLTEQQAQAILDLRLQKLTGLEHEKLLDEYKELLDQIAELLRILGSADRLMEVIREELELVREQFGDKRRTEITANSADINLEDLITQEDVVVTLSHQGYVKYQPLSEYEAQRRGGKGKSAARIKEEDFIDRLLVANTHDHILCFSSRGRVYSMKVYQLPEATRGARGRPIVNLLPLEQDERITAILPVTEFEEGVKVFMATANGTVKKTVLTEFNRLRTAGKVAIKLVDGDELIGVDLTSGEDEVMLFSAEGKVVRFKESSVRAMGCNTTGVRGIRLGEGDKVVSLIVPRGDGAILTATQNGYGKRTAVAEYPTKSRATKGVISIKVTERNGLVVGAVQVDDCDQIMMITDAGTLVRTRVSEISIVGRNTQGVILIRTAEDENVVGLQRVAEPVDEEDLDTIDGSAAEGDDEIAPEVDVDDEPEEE

[4] = biological target: E. coli Topoisomerase IV (Escherichia coli, UniProt P0AFI2+P20083); settings: for IC50: IC50 Topo IV; for inhibition at 50 µM: read-out: % inhibition Topo IV
[5] = S. aureus, compound conc. 50 μM, percent of inhibition versus positive control, n/a = not active

Sequence of S. aureus Topoisomerase IV (P0C1U9 whole entry): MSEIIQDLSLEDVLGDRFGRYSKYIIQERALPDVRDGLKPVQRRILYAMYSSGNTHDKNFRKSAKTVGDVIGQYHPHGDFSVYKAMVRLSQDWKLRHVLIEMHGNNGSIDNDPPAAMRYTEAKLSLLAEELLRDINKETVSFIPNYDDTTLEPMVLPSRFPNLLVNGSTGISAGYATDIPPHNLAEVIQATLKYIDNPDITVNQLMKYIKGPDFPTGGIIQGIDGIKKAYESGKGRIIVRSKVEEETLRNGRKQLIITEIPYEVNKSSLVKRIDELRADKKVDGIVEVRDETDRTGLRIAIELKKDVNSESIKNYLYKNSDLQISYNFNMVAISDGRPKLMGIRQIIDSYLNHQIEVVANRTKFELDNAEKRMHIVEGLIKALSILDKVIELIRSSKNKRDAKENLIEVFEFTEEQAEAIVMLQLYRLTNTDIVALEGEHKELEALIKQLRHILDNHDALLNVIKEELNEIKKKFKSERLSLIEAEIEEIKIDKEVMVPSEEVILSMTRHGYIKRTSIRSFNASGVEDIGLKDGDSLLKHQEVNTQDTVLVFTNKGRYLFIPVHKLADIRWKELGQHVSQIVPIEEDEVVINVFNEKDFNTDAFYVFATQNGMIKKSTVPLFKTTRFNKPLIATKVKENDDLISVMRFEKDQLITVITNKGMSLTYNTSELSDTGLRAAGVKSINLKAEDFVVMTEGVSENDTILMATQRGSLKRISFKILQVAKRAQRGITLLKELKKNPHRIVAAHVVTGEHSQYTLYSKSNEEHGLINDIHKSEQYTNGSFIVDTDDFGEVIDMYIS
Sequence of S. aureus Topoisomerase IV (P0C1S7 whole entry): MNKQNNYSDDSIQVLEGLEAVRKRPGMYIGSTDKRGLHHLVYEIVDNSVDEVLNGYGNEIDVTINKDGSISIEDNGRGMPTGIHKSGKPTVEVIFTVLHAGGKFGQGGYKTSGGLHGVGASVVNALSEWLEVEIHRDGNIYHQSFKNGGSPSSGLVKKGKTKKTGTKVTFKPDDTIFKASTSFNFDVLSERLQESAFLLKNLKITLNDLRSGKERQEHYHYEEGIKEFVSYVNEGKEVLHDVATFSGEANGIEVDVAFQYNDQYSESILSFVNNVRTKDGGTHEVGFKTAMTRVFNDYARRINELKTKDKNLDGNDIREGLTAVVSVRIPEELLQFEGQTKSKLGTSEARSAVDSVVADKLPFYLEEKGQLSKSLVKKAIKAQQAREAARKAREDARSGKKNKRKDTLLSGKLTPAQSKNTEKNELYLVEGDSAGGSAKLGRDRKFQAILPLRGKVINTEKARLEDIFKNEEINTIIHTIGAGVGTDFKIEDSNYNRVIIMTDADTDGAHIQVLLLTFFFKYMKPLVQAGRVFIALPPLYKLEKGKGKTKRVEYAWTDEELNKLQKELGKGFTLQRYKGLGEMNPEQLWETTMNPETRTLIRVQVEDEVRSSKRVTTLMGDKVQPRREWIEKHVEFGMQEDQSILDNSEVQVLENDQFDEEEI

Row | SMILES | IC50 ([1]; IC50 Topo IV) | IC50 [2] | IC50 [3] | IC50 [4] | inhibition at 50 µM [1, 5] | inhibition at 50 µM [2] | inhibition at 50 µM [3] | inhibition at 50 µM [4] | inhibition at 50 µM [1] | IC50 ([1]; S. aureus, Table 3, eight half-log concentrations ranging from 0.1 to 300 μM, read-out: IC50 Topo IV)
1 | O=c1cc(NCC(O)C2CCN(C[C@@H]3Cn4c(=O)ccc5ncc(=O)n3c54)CC2)c2cc(F)ccc2o1 (mixture of isomers) [Compound 343, (2R)-2-[(4-{2-[(6-fluoro-2-oxo-2H-1-benzopyran-4-yl)amino]-1-hydroxyethyl}piperidin-1-yl)methyl]-1,2-dihydro-3H,8H-2a,5,8a-triazaacenaphthylene-3,8-dione] | 8730 nM | 1980 nM | 910 nM | 1270 nM |  |  |  |  |  | 
2 | O=c1oc2ccc(F)cc2c2[nH]c(CN[C@H]3CC[C@H](n4c(=O)ccc5ncc(F)cc54)CC3)cc12 [Compound 207, 8-fluoro-2-({[trans-4-(7-fluoro-2-oxo-1,5-naphthyridin-1(2H)-yl)cyclohexyl]amino}methyl)[1]benzopyrano[4,3-b]pyrrol-4(1H)-one] | < 100 nM | < 100 nM | < 100 nM | < 100 nM | 100% | 100% | 100% | 100% |  | 
3 | O=C1COc2ncc(F)cc2N1[C@H]1CC[C@H](NCCNc2cc(=O)oc3ccc(F)cc23)CC1 [Compound 354, 7-fluoro-1-[trans-4-({2-[(6-fluoro-2-oxo-2H-1-benzopyran-4-yl)amino]ethyl}amino)cyclohexyl]-1H-pyrido[2,3-b][1,4]oxazin-2(3H)-one] | 920 nM | 350 nM | 470 nM | 180 nM |  |  |  |  |  | 
4 | O=C1COc2ncc(F)cc2N1[C@H]1CC[C@H](NCc2cc3ncc4c(c3[nH]2)OCCO4)CC1 [Compound 314, 1-[trans-4-{[(2,3-dihydro-9H-[1,4]dioxino[2,3-d]pyrrolo[3,2-b]pyridin-8-yl)methyl]amino}cyclohexyl]-7-fluoro-1H-pyrido [2,3-b][1,4]oxazin-2(3H)-one] | > 100000 nM | 7100 nM | 850 nM | 1140 nM |  |  |  |  |  | 
5 | COc1cnc2ccc(=O)n([C@H]3CC[C@@H](NCc4cc5c(=O)oc6ccc(F)cc6c5[nH]4)CC3)c2c1 [Compound 205, 8-fluoro-2-({[cis-4-(7-methoxy-2-oxo-1,5-naphthyridin-1(2H)-yl)cyclohexyl]amino}methyl)[1]benzopyrano[4,3-b]pyrrol-4(1H)-one] | 100 nM | 170 nM | 100 nM | 310 nM | 100% | 100% | 100% | 100% |  | 
6 | N#Cc1cnc2c(c1)N([C@H]1CC[C@H](NCc3cc4c(=O)oc5ccc(F)cc5c4[nH]3)CC1)C(=O)CO2 [Compound 214, 1-(trans-4-{[(8-fluoro-4-oxo-1,4-dihydro[1]benzopyrano[4,3-b]pyrrol-2-yl)methyl]amino}cyclohexyl)-2-oxo-2,3-dihydro-1H-pyrido[2,3-b][1,4]oxazine-7-carbonitrile] | 570 nM | 160 nM | 120 nM | 1030 nM | 100% | 100% | 99% | 100% |  | 
7 | O=c1oc2ccc(F)cc2c2[nH]c(CN[C@H]3CC[C@H](n4c(=O)cnc5ccc(F)cc54)CC3)cc12 [Compound 211, 8-fluoro-2-({[trans-4-(7-fluoro-2-oxoquinoxalin-1(2H)-yl)cyclohexyl]amino}methyl)[1]benzopyrano[4,3-b]pyrrol-4(1H)-one] | < 100 nM | < 100 nM | < 100 nM | < 100 nM | 100% | 100% | 100% | 100% |  | 
8 | O=c1oc2ccc(F)cc2c2[nH]c(CN[C@H]3CC[C@H](n4c(=O)ccc5ccc(F)cc54)CC3)cc12 [Compound 216, 8-fluoro-2-({[trans-4-(7-fluoro-2-oxoquinolin-1(2H)-yl)cyclohexyl]amino}methyl)[1]benzopyrano[4,3-b]pyrrol-4(1H)-one] | 290 nM | 310 nM | 130 nM | 250 nM | 100% | 100% | 100% | 100% |  | 
9 | O=C1COc2ncc(F)cc2N1[C@H]1CC[C@H](NCc2cc3c(=O)oc4ccc(F)cc4c3[nH]2)CC1 [Compound 193, 8-fluoro-2-({[trans-4-(7-fluoro-2-oxo-2,3-dihydro-1H-pyrido[2,3-b][1,4]oxazin-1-yl)cyclohexyl]amino}methyl)[1]benzopyrano[4,3-b]pyrrol-4(1H)-one] | 2250 nM | 280 nM | 250 nM | 1380 nM |  | 86% | 77% | 50% | 74% | 
10 | COc1ccc2ncc(=O)n(C3CCN(CCc4cc5c(=O)oc6ccc(F)cc6c5[nH]4)CC3)c2n1 [Compound 197, 8-fluoro-2-{2-[4-(6-methoxy-3-oxopyrido[2,3-b]pyrazin-4(3H)-yl)piperidin-1-yl]ethyl}[1]benzopyrano[4,3-b]pyrrol-4(1H)-one] |  |  |  |  |  | 90% | 87% | 63% | 79% | 
11 | O=C1COc2ncc(F)cc2N1[C@H]1CC[C@H](NCc2cc3c(=O)oc4cccnc4c3[nH]2)CC1 [Compound 301] | 70300 nM | 720 nM | 460 nM | 430 nM |  |  |  |  |  | 
12 | COc1ccc2ccc(=O)n([C@H]3CC[C@H](NCc4cc5c(=O)oc6ccc(F)cc6c5[nH]4)CC3)c2c1 [Compound 219, 8-fluoro-2-({[trans-4-(7-methoxy-2-oxoquinolin-1(2H)-yl)cyclohexyl]amino}methyl)[1]benzopyrano[4,3-b]pyrrol-4(1H)-one] | 650 nM | 220 nM | 220 nM | 220 nM | 100% | 100% | 100% | 100% |  | 
13 | N#Cc1cnc2c(c1)N([C@H]1CC[C@@H](NCc3cc4c(=O)oc5ccc(F)cc5c4[nH]3)CC1)C(=O)CO2 [Compound 215, 1-(cis-4-{[(8-fluoro-4-oxo-1,4-dihydro[1]benzopyrano[4,3-b]pyrrol-2-yl)methyl]amino}cyclohexyl)-2-oxo-2,3-dihydro-1H-pyrido[2,3-b][1,4]oxazine-7-carbonitrile] |  |  |  |  |  | 96% | 69% |  |  | 
14 | N#Cc1ccc2ccc(=O)n([C@H]3CC[C@H](NCc4cc5c(=O)oc6ccc(F)cc6c5[nH]4)CC3)c2c1 [Compound 206, 1-(trans-4-{[(8-fluoro-4-oxo-1,4-dihydro[1]benzopyrano[4,3-b]pyrrol-2-yl)methyl]amino}cyclohexyl)-2-oxo-1,2-dihydroquinoline-7-carbonitrile] | < 100 nM | 130 nM | 50 nM | < 100 nM | 100% | 100% | 100% | 100% |  | 
15 | O=c1oc2ccc(F)cc2c2[nH]c(CN[C@H]3CC[C@@H](n4c(=O)cnc5ncc(F)cc54)CC3)cc12 [Compound 210, 8-fluoro-2-({[cis-4-(7-fluoro-2-oxopyrido[2,3-b]pyrazin-1(2H)-yl)cyclohexyl]amino}methyl)[1]benzopyrano[4,3-b]pyrrol-4(1H)-one] | 1310 nM | 1300 nM | 440 nM | 13800 nM | 84% | 100% | 92% | 86% |  | 
16 | O=c1nc(NCC(O)CN2CCN(c3nccc4ccncc34)CC2)c2cc(F)ccc2o1 (stereo not drawn) [Compound 157, 6-fluoro-4-({2-hydroxy-3-[4-(2,7-naphthyridin-1-yl)piperazin-1-yl]propyl}amino)-2H-1,3-benzoxazin-2-one] |  | 2480 nM | 2340 nM | 640 nM |  | 89% | 83% | 100% | 100% | 1020 nM
17 | O=C1COc2ncc(F)cc2N1[C@H]1CC[C@H](N(CCO)Cc2cc3c(=O)oc4ccc(F)cc4c3[nH]2)CC1 [Compound 221, 8-fluoro-2-({[trans-4-(7-fluoro-2-oxo-2,3-dihydro-1H-pyrido[2,3-b][1,4]oxazin-1-yl)cyclohexyl](2-hydroxyethyl)amino}methyl)[1]benzopyrano[4,3-b]pyrrol-4(1H)-one] | 2630 nM | 2760 nM | 920 nM | 670 nM | 100% | 100% | 81% | 50% |  | 
18 | COc1cnc2ncc(=O)n([C@H]3CC[C@H](NCc4cc5c(=O)oc6ccc(F)cc6c5[nH]4)CC3)c2c1 [Compound 212, 8-fluoro-2-({[trans-4-(7-methoxy-2-oxopyrido[2,3-b]pyrazin-1(2H)-yl)cyclohexyl]amino}methyl)[1]benzopyrano[4,3-b]pyrrol-4(1H)-one] | 70 nM | 140 nM | 100 nM | 170 nM | 100% | 100% | 100% | 100% |  | 
19 | Fc1ccc2ccnc(N3CCC(NCc4c[nH]c(-c5ccccn5)n4)CC3)c2c1 [Compound 160, 1-(7-fluoroisoquinolin-1-yl)-N-{[2-(pyridin-2-yl)-1H-imidazol-4-yl]methyl}piperidin-4-amine] |  | 20800 nM |  | 21500 nM |  | 65% | 50% | 60% |  | 
